Among the data in ChEMBL document CHEMBL1157377, “Atorvastatin is 10-fold more active in vitro than other statins against Plasmodium falciparum” (Antimicrob Agents Chemother, 2007) are IC50, Activity and IC90 values, retold here.

For series [1], the system named is Plasmodium falciparum. Put plainly: Antiplasmodial activity against chloroquine-sensitive Plasmodium falciparum IMT031. The class given is functional, organism-based.
Series [2] relates to Plasmodium falciparum. The series can be described thus: Antiplasmodial activity against chloroquine-resistant Plasmodium falciparum Bre1. The class given is functional, organism-based.
The test system of series [3] is Plasmodium falciparum. The series can be described thus: Antiplasmodial activity against chloroquine-resistant Plasmodium falciparum FCR3. The class given is functional, organism-based.
Series [4] deals with Plasmodium falciparum. The series can be described thus: Antiplasmodial activity against chloroquine-sensitive Plasmodium falciparum 3D7. Type of series: functional, organism-based.
For series [5], the system named is Plasmodium falciparum. Put plainly: Antiplasmodial activity against chloroquine-resistant Plasmodium falciparum W2. The class given is functional, organism-based.
In series [6] the test system is Plasmodium falciparum. The series can be described thus: Antiplasmodial activity against chloroquine-sensitive Plasmodium falciparum D6. Type of series: functional, organism-based.
The subject of a further series is L6. The series can be described thus: Toxicity against rat L6 cells assessed as induction of cell death at 100 uM. The class given is cell-based. Particulars: l6, 100 µM.

The IC50 is the midpoint of a concentration-inhibition curve. Read a low IC50 as higher potency. Regarding `CC[C@H](C)C(=O)O[C@H]1C[C@@H](C)C=C2C=C[C@H](C)[C@H](CC[C@@H](O)C[C@@H](O)CC(=O)O)[C@H]21`, the IC50 in the series with Plasmodium falciparum [1] was found to be 57.8 µM; in the series on Plasmodium falciparum [2] (Plasmodium falciparum, Bre1), 52.6 µM; with Plasmodium falciparum [3], 43.9 µM; with Plasmodium falciparum [4], 95.3 µM; with Plasmodium falciparum [5] (Plasmodium falciparum, W2) it was 103 µM; in the series on Plasmodium falciparum [6], 44.3 µM.

Take `CC[C@H](C)C(=O)O[C@H]1C[C@@H](C)C=C2C=C[C@H](C)[C@H](CC[C@@H]3C[C@@H](O)CC(=O)O3)[C@H]21` [LOVASTATIN]: the IC50 in the series with Plasmodium falciparum [1] was over 200 µM; in the series with Plasmodium falciparum [2] (Plasmodium falciparum, Bre1), over 200 µM; in the series with Plasmodium falciparum [3] it was over 200 µM; with Plasmodium falciparum [4], over 200 µM; in the series with Plasmodium falciparum [5] (Plasmodium falciparum, W2), over 200 µM; in the series on Plasmodium falciparum [6], over 200 µM.

In the case of `CC[C@H](C)C(=O)O[C@H]1CCC=C2C=C[C@H](C)[C@H](CC[C@@H]3C[C@@H](O)CC(=O)O3)[C@H]21` [MEVASTATIN], the IC50 was over 200 µM in the series on Plasmodium falciparum [1]; over 200 µM with Plasmodium falciparum [2] (Plasmodium falciparum, Bre1); over 200 µM with Plasmodium falciparum [3]; over 200 µM in the series with Plasmodium falciparum [4]; over 200 µM in the series with Plasmodium falciparum [5] (Plasmodium falciparum, W2); over 200 µM in the series on Plasmodium falciparum [6].

Turning to `CC(C)c1c(C(=O)Nc2ccccc2)c(-c2ccccc2)c(-c2ccc(F)cc2)n1CC[C@@H](O)C[C@@H](O)CC(=O)O` [ATORVASTATIN], in the series on L6, the Activity is listed as 27%.

Regarding `CC(C)n1c(/C=C/C(O)CC(O)CC(=O)O)c(-c2ccc(F)cc2)c2ccccc21` (stereo not drawn) [FLUVASTATIN SODIUM], the IC50 in the series with Plasmodium falciparum [1] was found to be 87.1 µM; with Plasmodium falciparum [2] (Plasmodium falciparum, Bre1), 92.5 µM; in the series with Plasmodium falciparum [3], 116 µM; in the series with Plasmodium falciparum [4] it was 108 µM; in the series on Plasmodium falciparum [5] (Plasmodium falciparum, W2), 90.2 µM; in the series on Plasmodium falciparum [6], 92.3 µM.

On to `CCC(C)(C)C(=O)O[C@H]1C[C@@H](C)C=C2C=C[C@H](C)[C@H](CC[C@@H](O)C[C@@H](O)CC(=O)O)[C@H]21`, for which the IC50 in the series on Plasmodium falciparum [1] was 36.9 µM; in the series on Plasmodium falciparum [2] (Plasmodium falciparum, Bre1), 48.4 µM; with Plasmodium falciparum [3] it was 76.7 µM; with Plasmodium falciparum [4], 69.8 µM; in the series on Plasmodium falciparum [5] (Plasmodium falciparum, W2), 58.9 µM; in the series on Plasmodium falciparum [6] it was 51.3 µM.

A word on the IC90: it is the concentration at which the effect reaches the 90% level. High values mean a need for much substance, low ones an effect from little substance. On to `CC(C)c1c(C(=O)Nc2ccccc2)c(-c2ccccc2)c(-c2ccc(F)cc2)n1CC[C@@H](O)C[C@@H](O)CC(=O)O` [ATORVASTATIN CALCIUM], for which the IC50 is 5.3 µM in the series on Plasmodium falciparum [1]; 5.8 µM in the series on Plasmodium falciparum [2] (Plasmodium falciparum, Bre1); 5.1 µM with Plasmodium falciparum [3]; 11.8 µM with Plasmodium falciparum [4]; 4.8 µM in the series on Plasmodium falciparum [5] (Plasmodium falciparum, W2); 5.8 µM in the series with Plasmodium falciparum [6]. For the same molecule, the IC90 turned out to be 15.8 µM with Plasmodium falciparum [1]; 24 µM with Plasmodium falciparum [2] (Plasmodium falciparum, Bre1); 23.6 µM in the series with Plasmodium falciparum [3]; 39 µM in the series with Plasmodium falciparum [4]; 14.8 µM with Plasmodium falciparum [5] (Plasmodium falciparum, W2); 18.1 µM in the series with Plasmodium falciparum [6].

On to `CC[C@H](C)C(=O)O[C@H]1CCC=C2C=C[C@H](C)[C@H](CC[C@@H](O)C[C@@H](O)CC(=O)O)[C@H]21` [listing 1 of 2 here], for which the IC50 is over 200 µM with Plasmodium falciparum [1]; over 200 µM in the series on Plasmodium falciparum [2] (Plasmodium falciparum, Bre1); over 200 µM in the series with Plasmodium falciparum [3]; over 200 µM with Plasmodium falciparum [4]; 88.5 µM in the series on Plasmodium falciparum [5]; over 200 µM in the series on Plasmodium falciparum [6].

As to `CC[C@H](C)C(=O)O[C@H]1CCC=C2C=C[C@H](C)[C@H](CC[C@@H](O)C[C@@H](O)CC(=O)O)[C@H]21` [listing 2 of 2 here], the figures for the IC50 in the series with Plasmodium falciparum [2] and in the series with Plasmodium falciparum [5] were 102 µM and over 200 µM, respectively.

Take `CC[C@H](C)C(=O)O[C@H]1C[C@H](O)C=C2C=C[C@H](C)[C@H](CC[C@@H](O)C[C@@H](O)CC(=O)O)[C@H]21` [PRAVASTATIN SODIUM]: the IC50 with Plasmodium falciparum [1] is over 200 µM; with Plasmodium falciparum [2] (Plasmodium falciparum, Bre1), over 200 µM; in the series with Plasmodium falciparum [3], over 200 µM; in the series on Plasmodium falciparum [4], over 200 µM; in the series on Plasmodium falciparum [5] (Plasmodium falciparum, W2) it was over 200 µM; with Plasmodium falciparum [6], over 200 µM.

`CCC(C)(C)C(=O)O[C@H]1C[C@@H](C)C=C2C=C[C@H](C)[C@H](CC[C@@H]3C[C@@H](O)CC(=O)O3)[C@H]21` [SIMVASTATIN]: the IC50 is over 200 µM in the series on Plasmodium falciparum [1]; over 200 µM in the series on Plasmodium falciparum [2] (Plasmodium falciparum, Bre1); over 200 µM in the series with Plasmodium falciparum [3]; over 200 µM in the series on Plasmodium falciparum [4]; over 200 µM in the series with Plasmodium falciparum [5] (Plasmodium falciparum, W2); over 200 µM with Plasmodium falciparum [6].
